Source: patent publication US4191780A, “Bromhexine derivatives and process for making same” (priority 1978, dated 1980)
Entries after “also recorded” stand apart in the source; their conditions may differ.

Assays:
[1] = tested on: Pain induced by a chemical stimulus; test: Siegmund Test: pain induced by a chemical stimulus (acetic acid writhing); type: in vivo, mice; conditions: mouse, 300 mg/kg oral
Protocol: (§1) Two test methods are used for establishing the action of Bromhexine and IFT 1026 on noci-ceptive stimuli in mice.
(§2) (a) Pain induced by a chemical stimulus according to the method of Siegmund (Siegmund E., Cadmier, R., and Lu, G. Proc. Soc. exp. Biol. N.Y. 95, 729--1957). The mice distributed at random into groups of 10 animals, are deprived of solid food for the 18-hour period prior to the test. […] Thirty minutes after treatment the mice are injected i.p. with 0.1 ml/10 g of a 1.5% acetic acid solution. The writhing is recorded for a 20 min. period following this i.p. injection.

[2] = Long-term toxicity in rats: biochemical parameters; type: in vivo, rat; conditions: daily oral 250 mg/kg Bromhexine, 350 mg/kg IFT 1026
[3] = Long-term toxicity in rats (16 weeks): mean body weight; type: in vivo
Source text: Effect of daily oral administration of various doses of
IFT 1026 and Bromhexine on mean body weight of rats.

[4] = tested on: Cough elicited by 15% citric acid spray; test: Antitussive activity in Guinea-pigs, citric acid spray cough; type: in vivo; conditions: Cavia porcellus, ip, 0.5 h, intraperitoneal, 30 min. after application, confidence limits P = 0.05
Protocol: (§3) (6) Antitussive effect in Guinea-pigs and mice
(§4) Cough is elicited by 15% citric acid spray in both species, according to the method by Harsany et al. (Boll. Chim. Farm. 112, 691, 1973). The effect was tested 1 hour after oral administration and 30 min. after intraperitoneal application of the antitussive agents on mice and Guinea-pigs respectively.
(§5) ED50 values of the drugs are computed by the method of Litchfield and Wilcoxon (Litchfield, J. T. Jr., and Wilcoxon F., J. Pharmacol. exp. Ther. 96,99--1949).

[5] = Long-term toxicity in rats: organ weights at necropsy; type: in vivo; conditions: fresh weight, daily oral 250 mg/kg Bromhexine, 350 mg/kg IFT 1026
Protocol: Effect of daily oral administration of 250 mg/kg Bromhexine and 350 mg/kg
organ weights of rats, expressed as grams of fresh weight.

[6] = Long-term toxicity in rats: mortality, pathology and general state
Protocol: Long-term toxicity (16 weeks) of IFT 1026 is tested in comparison to the parent compound (Bromhexine).

[7] = Eight-day toxicity studies in mice, lethality (i.p.); type: in vivo; conditions: for Total number of deaths: 8 days
Source text: Eight-day toxicity studies of IFT 1026 and Bromhexine in mice.

[8] = tested on: Pain induced by a physical stimulation; test: Hot-plate Test (Eddy and Leimbach): pain induced by a physical stimulation; type: in vivo, mice; conditions: mouse, 300 mg/kg oral, plate at 57° C.
Protocol: as §1
(§6) (b) Pain induced by a physical stimulation according to the hot-plate test technique by Eddy and Leimbach (Eddy, N. B. and Leimbach, O., J. Pharmacol. exp.Ther. 107, 383--1953). The temperature of the plate was kept at 57° C. Groups of 12 mice are treated as described under (a) above. The reaction times are measured 15 min. before treatment (Ro) and 4 times after the administration (every 15 min). Only the maximal response is taken into account (Rmax).

[9] = tested on: Cough elicited by 15% citric acid spray; test: Antitussive activity in mice, citric acid spray cough; type: in vivo; conditions: Mus musculus, oral, 1 hour after administration, confidence limits P = 0.05
Protocol: as §3, §4, §5

[10] = Bromsulphtalein (BSP) clearance in rats treated with the lower dose; type: in vivo; conditions: 30 min after 50 mg/kg BSP i.v., lower dose of drug
Protocol: The possibility to use BSP for the diagnosis of lesions in liver parenchyma is well known. Bromsulphtalein (BSP) clearance was made according to Carpi and Parenti (Carpi, C. and M. A. Parenti, Il Farmaco, Ed. Pr. vol. 17, page 45, 1962). Thirty minutes after the i.v. administration of 50 mg/kg BSP to control rats, the mean plasma level of the dyestuff is 80±12 mcg/ml.
% of rate showing BSP plasma levels greater than 80 mcg/ml
(control values) and 160 mcg/ml (two-fold control values)

noci-ceptive stimuli = test: Study of analgesic action on mice (both tests); type: in vivo; conditions: 300 mg/kg oral
Protocol: as §1, §2, §6

[11] = Long-term toxicity in rats: hematological parameters; type: in vivo, rat; conditions: daily oral Bromhexine 250 mg/kg, IFT 1026 350 mg/kg
Protocol: The hematological and biochemical values relating to the groups under treament with the above reported doses are shown in Tables Nos. 4 and 5. These values are virtually the same for both treated and control animals.
Effect of daily oral administration of Bromhexine 250 mg/kg
and IFT 1026 350 mg/kg on the hematological parameters in […]

## COc1ccccc1OCC(=O)Nc1c(Br)cc(Br)cc1CN(C)C1CCCCC1 [IFT 1026, N-(2-guaiacol-glycolyl-amino-3,5-dibromobenzyl)N-cyclohexylmethylamine]
[1]
  Siegmund Test, number of writhings for a 20 min. period, mean ± SE: 34 ± 3
[2]; females
  A/G ratio (Albumin/Globulin), mean ± SE: 2.6 ± 0.3
  BUN, mean ± SE: 41.1 ± 2 mg %
  GLUCOSE, mean ± SE: 85.9 ± 8 mg %
  SGOT, mean ± SE: 25.1 ± 0.3 Units/ml
  SGPT, mean ± SE: 13.2 ± 0.4 Units/ml
  TOTAL PROTEIN, mean ± SE: 30.6 ± 2.4 mg/mL
[2]; males
  A/G ratio (Albumin/Globulin), mean ± SE: 2.2 ± 0.1
  BUN, mean ± SE: 39.9 ± 5 mg %
  GLUCOSE, mean ± SE: 73.7 ± 5 mg %
  SGOT, mean ± SE: 24.5 ± 0.6 Units/ml
  SGPT, mean ± SE: 13.1 ± 0.7 Units/ml
  TOTAL PROTEIN, mean ± SE: 28.2 ± 2.1 mg/mL
[3]; females, 70 mg/kg daily oral, 0 days
  body weight, mean ± SE: 125 ± 6 g
[3]; females, 70 mg/kg daily oral, 21 days
  body weight, mean ± SE: 181 ± 5 g
[3]; females, 70 mg/kg daily oral, 45 days
  body weight, mean ± SE: 218 ± 2 g
[3]; females, 70 mg/kg daily oral, 60 days
  body weight, mean ± SE: 242 ± 2 g
[3]; females, 350 mg/kg daily oral, 0 days
  body weight, mean ± SE: 118 ± 2 g
[3]; females, 350 mg/kg daily oral, 21 days
  body weight, mean ± SE: 179 ± 5 g
[3]; females, 350 mg/kg daily oral, 45 days
  body weight, mean ± SE: 225 ± 7 g
[3]; females, 350 mg/kg daily oral, 60 days
  body weight, mean ± SE: 232 ± 10 g
[3]; females, 1400 mg/kg daily oral, 0 days
  body weight, mean ± SE: 122 ± 5 g
[3]; females, 1400 mg/kg daily oral, 21 days
  body weight, mean ± SE: 173 ± 7 g
[3]; females, 1400 mg/kg daily oral, 45 days
  body weight, mean ± SE: 211 ± 5 g
[3]; females, 1400 mg/kg daily oral, 60 days
  body weight, mean ± SE: 221 ± 8 g
[3]; males, 70 mg/kg daily oral, 0 days
  body weight, mean ± SE: 117 ± 7 g
[3]; males, 70 mg/kg daily oral, 21 days
  body weight, mean ± SE: 220 ± 4 g
[3]; males, 70 mg/kg daily oral, 45 days
  body weight, mean ± SE: 310 ± 4 g
[3]; males, 70 mg/kg daily oral, 60 days
  body weight, mean ± SE: 370 ± 6 g
[3]; males, 350 mg/kg daily oral, 0 days
  body weight, mean ± SE: 123 ± 8 g
[3]; males, 350 mg/kg daily oral, 21 days
  body weight, mean ± SE: 226 ± 6 g
[3]; males, 350 mg/kg daily oral, 45 days
  body weight, mean ± SE: 290 ± 7 g
[3]; males, 350 mg/kg daily oral, 60 days
  body weight, mean ± SE: 368 ± 4 g
[3]; males, 1400 mg/kg daily oral, 0 days
  body weight, mean ± SE: 121 ± 5 g
[3]; males, 1400 mg/kg daily oral, 21 days
  body weight, mean ± SE: 222 ± 7 g
[3]; males, 1400 mg/kg daily oral, 45 days
  body weight, mean ± SE: 295 ± 8 g
[3]; males, 1400 mg/kg daily oral, 60 days
  body weight, mean ± SE: 365 ± 9 g
[3]; rats, exception: Bromhexine 1000 mg/kg/day
  variations in the body weights versus control group: no significant variations
[4]
  ED50: 189 mg/kg
[5]; females
  organ weight, Adrenal glands: 4.6 ± 0.1 10^-2 grams
  organ weight, Brain: 19.4 ± 1 10^-1 grams
  organ weight, Heart: 7.3 ± 0.8 10^-1 grams
  organ weight, Kidneys: 18.2 ± 0.4 10^-1 grams
  organ weight, Liver: 10.1 ± 0.3 grams
  organ weight, Lungs: 14.2 ± 1.1 10^-1 grams
  organ weight, Spleen: 6.5 ± 0.2 10^-1 grams
[5]; males
  organ weight, Adrenal glands: 3.7 ± 0.5 10^-2 grams
  organ weight, Brain: 13.4 ± 0.4 10^-1 grams
  organ weight, Heart: 7.1 ± 0.4 10^-1 grams
  organ weight, Kidneys: 18.3 ± 0.4 10^-1 grams
  organ weight, Liver: 9.7 ± 0.9 grams
  organ weight, Lungs: 9.1 ± 0.8 10^-1 grams
  organ weight, Spleen: 6.3 ± 0.3 10^-1 grams
[6]; rat, in vivo
  animals that died during the study: 2 animals
  changes in general state of health, behaviour, body weight, blood and viscera: no significant changes
  long-term toxicity in the rats: weak
[6]; rats, subacute and long-term administration
  toxicity compared with Bromhexine (parent compound): less toxic than Bromhexine; also recorded: less toxic than the parent compound
[7]; daily dose 450 mg/k
  Number of deaths at day 3: 1
  Total number of deaths: 1/10
[7]; daily dose 900 mg/k
  Number of deaths at day 2: 1
  Total number of deaths: 1/10
[8]
  Hot-plate Test (R max/Ro), mean ± SE: 1.62 ± 0.26
[9]
  ED50: 298 mg/kg
[10]; X^2 = 0.43, N.S.
  % showing BSP plasma levels >160 mcg/ml: 5.5%
  rats showing BSP plasma levels >160 mcg/ml, number/tested: 1/18
[10]; X^2 = 0.7, N.S.
  % showing BSP plasma levels >80 mcg/ml: 28%
  rats showing BSP plasma levels >80 mcg/ml, number/tested: 5/18
noci-ceptive stimuli
  Responses to algogenic stimuli: not suppressed
[11]; females
  RBC, mean ± SE: 817 ± 58 10^6 /ml
  WBC, mean ± SE: 179 ± 26 10^2 /ml
[11]; males
  RBC, mean ± SE: 657 ± 60 10^6 /ml
  WBC, mean ± SE: 140 ± 10 10^2 /ml
